# Assay results published in patent US9696306B2, “Methods of reducing levels of tau” (The Trustees of Columbia University in the City of New York, priority 2011, dated 2017).
# Counter-ions that a name gives are not always drawn.
# Test system: Aβ40
# Assay: Screen of NIH clinical collection compounds for reduction of Aβ40 in Tg2576 mES cell derived neurons (Aβ40 ELISA)
# Format: cell-based, mouse
# Design: Percent Inhibition: concentration or dose not given beside the values
# Conditions: Aβ40 in conditioned media vs DMSO control; neurons treated on day 8 after plating for 24 hours
# Method: In certain embodiments, the inhibitor of the present invention is identified by an assay directed to detecting inhibitors of Aβ40 production. For example, but not by way of limitation, such assays can include assays such as those prepared as follows. First, mouse ES cells isolated from Tg2576 mice are subjected to directed differentiation as previously described. After dissociation of embryoid bodies, neurons are plated in poly-D-lysine and laminin coated 96 well black plates at a density of 1.5×10^5 cells/cm2 which is 45,000 cells/well. Media is changed to N2 containing media after 4 hours and again the next day after plating. Two days after plating, media is changed to B27 containing media which is replaced every 2 days after that. On day 8 after plating the mouse ES derived neurons are treated with the compound of interest. […] In certain embodiments the compounds are incubated with the cells for 24 hours in 150 μl B27 media. In certain embodiments each plate of ES derived neurons is treated with NCC compounds, DMSO (negative control), and the positive controls for Aβ reduction BACE inhibitor IV (Calbiochem) and Compound E. After 24 hours, 100 μl conditioned media can then be removed and frozen at −80° C. until further analysis for Aβ40 content. The remaining cells in 50 μl media can be subjected to cell viability assay CellQuanti Blue (BioAssay Systems). In certain embodiments, conditioned media can be subjected to Aβ40 quantification, e.g., by using Aβ40 ELISA (Invitrogen).
# Mouse ES cells isolated from. Tg2576 mice were subjected to directed differentiation as previously described. After dissociation of embryoid bodies, neurons were plated in poly-D-lysine and laminin coated 96 well black plates at a density of 1.5×10^5 cells/cm2 which is 45,000 cells/well. Media was changed to N2 containing media after 4 hours and again the next day after plating. Two days after plating, media was changed to B27 containing media which was replaced every 2 days after that. […] Each plate of ES derived neurons was treated with NCC compounds, DMSO (negative control), and the positive controls for Aβ reduction BACE inhibitor IV (Calbiochem) and Compound E. After 24 hours, 100 μl conditioned media was removed and frozen at −80° C. until further analysis for Aβ40 content. The remaining cells in 50 μl media were subjected to cell viability assay CellQuanti Blue (BioAssay Systems). Conditioned media was subjected to Aβ40 quantification using Aβ40 ELISA (Invitrogen). Compounds which lowered Aβ40 levels in the conditioned media were identified as hits if they reduced Aβ40 by 4 standard deviations of the negative control (DMSO) but maintained cell viability. Cell viability was defined by CellQuanti Blue fluorescent signal maintained within two standard deviations of fluorescent signal from the control treated (DMSO) cells. High potency hits were defined by reducing Aβ40 40% or more (signal 60% of DMSO control).
# Hits were defined as lowering Aβ by 4 standard deviations below the negative control (DMSO) treated condition but maintaining cell viability within 2 standard deviations of control.
row,Compound,Percent Inhibition
1,"C[N+]1(C)CCN(c2ccccc2)CC1.[I-] [1,1,-dimethyl-4-phenylpiperazinium iodide]",9%
2,Cc1ncc([N+](=O)[O-])n1CC(C)O (stereo not shown) [1-(2-methyl-5-nitro-imidazol-1-yl)-propan-2-ol],12%
3,"O=C1N(c2ccccc2)c2ccccc2C1(Cc1ccncc1)Cc1ccncc1 [2h-indol-2-one,1,3-dihydro-1-phenyl-3,3-bis(4-pyridinylmethyl)]",22%
4,O=C(NCCN1CCOCC1)c1ccc(Cl)cc1 [4-chloro-n-(2-morpholin-4-yl-ethyl)-benzamide],21%
5,O=[N+]([O-])c1cccc2cn[nH]c12 [7-nitroindazole],17%
6,"Cl.Nc1c2c(nc3c1CCC3)CCCC2 [amiridine, cyclopenta[b]quinolin-9-amine, 2,3,5,6,7,8-hexahydro-,monohydrochloride]",40%
7,"CN1C2CC(OC(=O)C(CO)c3ccccc3)CC1C1OC12 (stereo not drawn) [benzeneacetic acid, alpha-(hydroxymethyl)-, 9-methyl-3-oxa-9-azatricyclo[3,3,1,2,4]non-7-yl ester]",67%
8,COc1cc(OC)c(C(=O)CCCN2CCCC2)c(OC)c1 [buflomedil],13%
9,COc1cc(CNC(=O)CCCC/C=C/C(C)C)ccc1O [capsaicin],62%
10,C=CC1=C(C(=O)O)N2C(=O)[C@@H](NC(=O)/C(=N\OCC(=O)O)c3csc(N)n3)[C@H]2SC1 [cefixime],19%
11,CC[C@H]1OC(=O)[C@H](C)[C@@H](O[C@H]2C[C@@](C)(OC)[C@@H](O)[C@H](C)O2)[C@H](C)[C@@H](O[C@@H]2O[C@H](C)C[C@H](N(C)C)[C@H]2O)[C@](C)(OC)C[C@@H](C)C(=O)[C@H](C)[C@@H](O)[C@]1(C)O [clarithromycin],22%
12,CN1C(=O)CN=C(c2ccccc2)c2cc(Cl)ccc21 [diazepam],11%
13,O=C(O)C(Cl)Cl [dichloroacetic acid],11.5%
14,C[C@@H]1C[C@H]2[C@@H]3C[C@H](F)C4=CC(=O)C(Cl)=C[C@]4(C)[C@@]3(F)[C@@H](O)C[C@]2(C)[C@@]1(O)C(=O)CO [halometasone],14%
15,COc1ccc(-c2oc3c(CC=C(C)C)c(O[C@@H]4O[C@H](CO)[C@@H](O)[C@H](O)[C@H]4O)cc(O)c3c(=O)c2O[C@@H]2O[C@@H](C)[C@H](O)[C@@H](O)[C@H]2O)cc1 [icariin],53%
16,CO[C@@H]1[C@@H](O[C@@H]2O[C@H](C)[C@@H](O[C@H]3C[C@@](C)(O)[C@@H](OC(=O)CC(C)C)[C@H](C)O3)[C@H](N(C)C)[C@H]2O)[C@@H](CC=O)C[C@@H](C)[C@@H](O)/C=C/C=C/C[C@@H](C)OC(=O)C[C@H]1O [kitasamycin],16%
17,CC(Oc1c(Cl)cccc1Cl)C1=NCCN1 (stereo not shown) [lofexidine],17%
18,CC(C(=O)O)c1ccc(CC2CCCC2=O)cc1 (stereo not shown) [loxoprofen],9%
19,CC(=O)O[C@]1(C(C)=O)CC[C@H]2[C@@H]3C=C(C)C4=CC(=O)CC[C@]4(C)[C@H]3CC[C@@]21C [megestrol acetate],20%

row,Compound,Percent Inhibition
1,Oc1ccc2c3c1O[C@H]1c4[nH]c5ccccc5c4C[C@@]4(O)[C@@H](C2)N(CC2CC2)CC[C@]314 [naltrindole],66%
2,CN1C(=O)CN=C(c2ccccc2)c2cc([N+](=O)[O-])ccc21 [nimetanzepam],13%
3,c1cncc([C@@H]2CCCN2)c1 [nornicotine],50%
4,Cc1ncc([N+](=O)[O-])n1CC(O)CCl (stereo not shown) [orinidazole],9%
5,Nc1nc(O)c2ncn(CCC(CO)CO)c2n1 [peniciclovir],11%
6,NNCCc1ccccc1 [phenelzine sulfate],70%
7,OC[C@H]1O[C@@H](Oc2cc(O)cc(/C=C/c3ccc(O)cc3)c2)[C@H](O)[C@@H](O)[C@@H]1O [piceid],11%
8,C[C@@H](N=C(NC#N)Nc1ccncc1)C(C)(C)C [pinacicil],17%
9,Cc1nc2ccccn2c(=O)c1CCN1CCC(C(=O)c2ccc(F)cc2)CC1 [pirenperone],11%
10,CN1C(C(=O)Nc2ccccn2)=C(O)c2ccccc2S1(=O)=O [piroxicam],9.5%
11,"COc1cc(-c2ccc(=O)[nH]n2)ccc1OC(F)F [pyridazinone, 6-[4-difluoromethoxy)-3-methoxyphenyl]]",50%
12,CN(C)CCc1c[nH]c2ccc(Cn3cncn3)cc12 [rizatriptan benzoate],10%
13,CS(=O)(=O)c1ccc(C2=C(c3ccccc3)C(=O)OC2)cc1 [rofecoxib],12%
14,CC(=O)OCC(=O)NCCCOc1cccc(CN2CCCCC2)c1 [roxatidine acetate],12%
15,CNS(=O)(=O)Cc1ccc2[nH]cc(CCN(C)C)c2c1 [sumatriptan succinate],8%
16,O[C@@H]1CCCC[C@H]1N1CCC(c2ccccc2)CC1 [vesamicol hcl],52%
17,gabexate mesylate,20%
18,medroxyprogesterone,20%
19,salbutamol sulfate,70%

# Same assay, conditions: Aβ40 lowering; high priority hits confirmed from independent compound sources; read-out: IC50
row,Compound,IC50
1,"Cl.Nc1c2c(nc3c1CCC3)CCCC2 [amiridine, cyclopenta[b]quinolin-9-amine, 2,3,5,6,7,8-hexahydro-,monohydrochloride]",2300 nM

# Same assay, conditions: Mus musculus, Neuron
row,Compound,IC50
1,COc1ccc(-c2oc3c(CC=C(C)C)c(O[C@@H]4O[C@H](CO)[C@@H](O)[C@H](O)[C@H]4O)cc(O)c3c(=O)c2O[C@@H]2O[C@@H](C)[C@H](O)[C@@H](O)[C@H]2O)cc1 [icariin],5100 nM

# Same assay, conditions: Mus musculus, Neuron; Aβ40 lowering; high priority hits confirmed from independent compound sources; read-out: IC50
row,Compound,IC50
1,NNCCc1ccccc1 [phenelzine sulfate],2500 nM

# Test system: tau
# Assay: Assay for tau: Western blot of tau isoforms in wild type mES cell-derived pyramidal neurons
# Format: cell-based, mouse
# Design: key: *: asterisk denotes hit compounds
# Conditions: 1 uM; treated at 14 DIV for 48 hr; Western blot (CP13, PHF)
# Method: (§1) In certain embodiments, the inhibitor of the present invention is identified by an assay directed to detecting inhibitors of tau phosporylation. For example, but not by way of limitation, such assays can include assays such as those prepared as follows. First, wild type, mouse embryoinc stem cells are differentiated into pyramidal neurons using the protocol described in Example 1. ES cell-derived neurons are treated at 14 DIV for 48 hr with either vehicle (D, DMSO) or various histone demethylase inhibitors (inhibitor compounds 1-10). Tau isoforms are detected by Western blot analysis of the cell lysates using the indicated antibodies, See FIG. 11. CP13 recognizes tau phosphorylation at ser202/205. PHF recognizes tau phosphorylation at ser396/404. TUJ1 (Neuron-specific class III beta-tubulin) is used as a loading control.
# as §1, with “Wild” for “In certain embodiments, the inhibitor of the present invention is identified by an assay directed to detecting inhibitors of tau phosporylation. For example, but not by way of limitation, such assays can include assays such as those prepared as follows. First, wild”, “were” for “are”
# List of inhibitor compounds tested for their ability to inhibit levels of total tau, disease-associated phosphorylated or presence of modified forms of tau include (asterisk denotes hit compounds): *1. pargyline (LSD1 inhibitor)—1000 uM; *2. deprenyl (LSD1 inhibitor)—1000 uM; *3. propargyl (LSD1 inhibitor)—100 uM; 4. phenelzine (LSD1 inhibitor)—100 uM; 5. tranylcyprmine (LSD1 inhibitor)—200 uM; *6. S2101 (LSD1 Inhibitor II, EMD Biosciences catalog #489477)—LSD1 inhibitor—1 uM; 7. N-oxyalylglycine (NOG) (JMJD2s inhibitor)—1000 uM; *8. pyradine (JMJ2A and E inhibitor)—1000 uM; *9. disulfiram (JMJ2A inhibitor)—20 uM; *10. ebselen (JMJ2A inhibitor)—20 uM.
row,Compound,"ability to inhibit levels of total tau, disease-associated phosphorylated or presence of modified forms of tau"
1,NC1CC1c1cc(F)cc(F)c1OCc1ccccc1 (stereo not shown) [S2101],*

# Same assay, conditions: 20 uM; treated at 14 DIV for 48 hr; Western blot (CP13, PHF)
row,Compound,"ability to inhibit levels of total tau, disease-associated phosphorylated or presence of modified forms of tau"
1,CCN(CC)C(=S)SSC(=S)N(CC)CC [disulfiram],*
2,O=c1c2ccccc2[se]n1-c1ccccc1 [ebselen],*

# Same assay, conditions: 1000 uM; treated at 14 DIV for 48 hr; Western blot (CP13, PHF)
row,Compound,"ability to inhibit levels of total tau, disease-associated phosphorylated or presence of modified forms of tau"
1,C#CCN(C)[C@H](C)Cc1ccccc1 [deprenyl],*
2,C#CCN(C)Cc1ccccc1 [pargyline],*
